In data set [1] the target is T1, human urate transporter 1 (hURAT1) (Homo sapiens, UniProt Q96S37).
T1 construct: host or cells: Flp-In-T-REx-293 (HEK293-derived), doxycycline-induced
T1 sequence (Q96S37 1-553): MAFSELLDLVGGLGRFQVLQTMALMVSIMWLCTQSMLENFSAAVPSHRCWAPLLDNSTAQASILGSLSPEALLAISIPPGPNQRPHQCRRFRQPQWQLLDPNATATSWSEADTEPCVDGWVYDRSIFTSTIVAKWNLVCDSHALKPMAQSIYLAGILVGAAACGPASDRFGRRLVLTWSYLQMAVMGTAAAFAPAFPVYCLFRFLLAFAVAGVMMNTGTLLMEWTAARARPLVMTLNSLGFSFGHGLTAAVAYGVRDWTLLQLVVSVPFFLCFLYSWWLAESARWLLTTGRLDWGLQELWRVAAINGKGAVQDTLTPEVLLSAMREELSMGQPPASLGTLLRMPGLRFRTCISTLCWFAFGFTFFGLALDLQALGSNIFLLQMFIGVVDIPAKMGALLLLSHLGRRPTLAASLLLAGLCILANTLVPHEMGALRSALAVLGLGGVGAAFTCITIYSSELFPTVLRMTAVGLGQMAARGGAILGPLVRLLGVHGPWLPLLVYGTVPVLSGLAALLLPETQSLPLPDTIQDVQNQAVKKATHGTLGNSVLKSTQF
The data set can be described thus: Inhibitory activity against urate transporter URAT1 (14C-uric acid uptake in Flp-In-T-REx-293-hURAT1 cells). The data set is classed as cell-based. On the procedure:
Inhibitory activity of each compound against urate transporter URAT1 was tested. Compounds: the compounds of the present disclosure were prepared according to the methods in examples; Verinurad was purchased commercially; and CDER167 was prepared according to the method described in the literature (doi: 10.1038/s41401-021-00640-5). Cells: Flp-In-T-REx-293-hURAT1 cells capable of expressing human urate transporter 1 (hURAT1), were purchased from Pharmaron Beijing Co., Ltd., China or can be generated (e.g., by transfecting hURAT1 genes into commercially available Flp-In-T-REx-293 cells according to the method described in the literature doi: 10.1124/dmd.106.012187, and the expression of the hURAT1 genes can be verified by methods such as Western blotting). [drawing 76] The Flp-In-T-REx-293-hURAT1 cells were cultured in a Dulbecco's Modified Eagle Medium (DMEM) in 75 cm^2 flasks under 5% CO2 and 37°C, and passaged every two days. […] The cells were resuspended in the DMEM and then counted, and subsequently prepared into a cell suspension with a proper density. The cells were seeded into a 96-well plate and cultured in a 37°C and 5% CO2 incubator for 24 h. The culture medium was removed, and DMEM containing 200 ng/mL doxycycline was added. The cells were then placed back into the 37°C and 5% CO2 incubator and cultured for 18 h. The test compounds were serially diluted 3-fold in DMSO starting from 10 mmol/L to prepare 10 stock solutions at varying concentrations. A buffer solution was prepared, which contained 125 mmol/L sodium gluconate, 4.8 mmol/L potassium gluconate, 5.6 mmol/L glucose, 1.2 mmol/L potassium dihydrogen phosphate, 1.2 mmol/L magnesium sulfate, 1.3 mmol/L calcium gluconate and 25 mmol/L HEPES (pH = 7.4). 1.2 µL of each test compound stock solution was mixed with 119 µL of buffer to form an assay buffer. After induction for 16 h, the culture medium was removed, and the cells were washed with a prewarmed buffer and incubated for 10 min at 37°C. The buffer was then removed, and an assay buffer containing 50 µmol/L ^14C-uric acid and the test compound was added to the cells, and then the cells were incubated at 37°C for 5 min. The buffer was removed, the cells were washed three times with a precool buffer. Subsequently, 100 mmol/L NaOH was added to lyse the cells for 20 min. The lysate was transferred to a 96-well plate, and then 200 µL of UltimaGold XR scintillation cocktail was added, and radioactivity was measured using a MicroBeta^2 (PerkinElmer). The half-maximal inhibitory concentration (IC50) of each test compound was calculated via GraphPad Prism 8 software using a nonlinear regression fitting equation. The IC50 values were categorized by the following grades: […] Table 2 Inhibitory activity (IC50) of some compounds in the present disclosure against urate transporter

Data set [2] relates to ICR mice. In words: Toxicity test: 28-day repeated administration in mice, histopathological examination of liver and kidney. Conditions: intragastric gavage 200 mg/kg once daily for 28 consecutive days, 8 mice per group.
Experimental: The toxicity of each compound was evaluated following 28-day repeated administration in mice.
Method: ICR mice that passed quarantine were selected, with equal numbers of males and females. The mice were randomly grouped based on body weight and sex, with 8 mice per group. The test compounds included the compounds of the present disclosure and a positive drug Verinurad. The test compounds were administered to the animals via intragastric gavage at a dosage of 200 mg/kg, once daily for 28 consecutive days. Detailed clinical observations were performed after each administration, with at least 2 h observation following the first administration or upon detection of abnormalities. In addition, cage-side observations were conducted once daily in the afternoon. Observations included clinical signs (animal appearance, behavior, diet, response to stimuli, secretions and excretions) and mortality (time of death or time of discovery of death, pre-mortem signs, etc.). In addition, the symptoms of animals, and the onset, severity, and duration of any observed clinical symptoms of animals were recorded. On Day 28 of administration, the mice were euthanized immediately after blood collection was completed and subjected to necropsy. Livers and left kidneys were collected for paraffin embedding, sectioning and hematoxylin-eosin (HE) staining, followed by histopathological examination to observe tissue lesions. Special attention was paid to the degeneration and inflammatory changes in glomeruli and renal tubules, as well as the presence of urea crystals. The animals euthanized due to found moribund or the animals dead during the experiment were subjected to necropsy promptly.
Setting [3] is: Flp-In-T-REx-293-hURAT1 cells, 50 µmol/L 14C-uric acid, 5 min at 37°C, read-out: IC50.

Read-outs that look alike come from different tables or passages of the source.

These results are taken from patent EP4768471A1, “SIX-MEMBERED AND FIVE-MEMBERED FUSED RING DERIVATIVE, AND PREPARATION METHOD THEREFOR AND USE THEREOF” (Guangdong Hengqin Novagains Biopharmaceutical Co., Ltd., priority 2023, dated 2025).

What is called IC50 is the concentration that inhibits the measured activity by half. In data set [1], `N#Cc1cn(Cc2ccccc2SC2(C(=O)O)CCC2)c2ncccc12` [Compound F-20] came in with an IC50 of 100 to 500 nM. In addition, the “hepatic or renal toxicity upon histopathological examination” value in data set [2] is “no hepatic or renal toxicity”.

In data set [1], `CC(C)(Sc1ccccc1Cn1cc(C#N)c2c(F)cccc21)C(=O)O` [Compound F-14] gave a 50% inhibitory concentration (IC50) of 100 to 500 nM. Further, the “hepatic or renal toxicity upon histopathological examination” value in data set [2] was “no hepatic or renal toxicity”.

The molecule `CC(C)(Sc1ccccc1Cn1cc(C#N)c2cccc(F)c21)C(=O)O` [Compound F-17] yielded an IC50 in data set [1] of 100 to 500 nM. Moreover, the “hepatic or renal toxicity upon histopathological examination” value in data set [2] is reported as “no hepatic or renal toxicity”.

`COc1ccc(SC2(C(=O)O)CCC2)c(Cn2cc(C#N)c3cccnc32)c1` [Compound F-30]: in data set [1] (setting [3]), the half-inhibitory concentration (IC50) was 100 to 500 nM. In addition, the “hepatic or renal toxicity upon histopathological examination” value in data set [2] was “no hepatic or renal toxicity”.

For `CC(C)(Sc1ccncc1Cc1ccc(C#N)c2ccccc12)C(=O)O` [CDER167, reference compound], in data set [1] (setting [3]), the half-inhibitory concentration (IC50) is > 1000 nM.

`CC(C)(Sc1ccc(Cl)cc1Cn1cc(C#N)c2ccccc21)C(=O)O` [Compound F-10]: the half-maximal inhibitory concentration (IC50) in data set [1] (setting [3]) was in the range of 100 to 500 nM. For the same molecule, the “hepatic or renal toxicity upon histopathological examination” value in data set [2] is on record as “no hepatic or renal toxicity”.

Turning to `CC(C)(Sc1ccc(Br)cc1Cn1cc(C#N)c2ccccc21)C(=O)O` [Compound F-11], in data set [1] (setting [3]), the IC50 was in the range of 100 to 500 nM. Besides, the “hepatic or renal toxicity upon histopathological examination” value in data set [2] is reported as “no hepatic or renal toxicity”.

`N#Cc1cn(Cc2cc(Cl)ccc2SC2(C(=O)O)CCC2)c2ncccc12` [Compound F-27]: the IC50 in data set [1] (setting [3]) lay in the range of 100 to 500 nM. The “hepatic or renal toxicity upon histopathological examination” value in data set [2] is on record as “no hepatic or renal toxicity”.

With `CC(C)(Sc1ccccc1Cn1cc(C#N)c2cncnc21)C(=O)O` [Compound F-08], the concentration for half-maximal inhibition (IC50) in data set [1] (setting [3]) is 100 to 500 nM. Moreover, the “hepatic or renal toxicity upon histopathological examination” value in data set [2] was “no hepatic or renal toxicity”.

As to `CC(C)(Sc1ccncc1-c1ccc(C#N)c2ccccc12)C(=O)O` [Verinurad, reference compound], in data set [1] (setting [3]), the IC50 lay within 500 to 1000 nM. In addition, in data set [2], the “renal toxicity (number of mice affected)” value is 3 out of 8 and the “renal toxicity (percentage of mice affected)” value worked out at 37.5%.

Regarding `CC(C)(Sc1ccccc1Cn1cc(C#N)c2cnccc21)C(=O)O` [Compound F-05], in data set [1] (setting [3]), the IC50 is < 100 nM. Besides, the “hepatic or renal toxicity upon histopathological examination” value in data set [2] is listed as “no hepatic or renal toxicity”.

In the case of `CC(C)(Sc1ccccc1Cn1cc(C#N)c2cccnc21)C(=O)O` [Compound F-07], the IC50 in data set [1] is < 100 nM. Also, the “hepatic or renal toxicity upon histopathological examination” value in data set [2] was “no hepatic or renal toxicity”.

In data set [1], `CC(C)(Sc1ccc(F)cc1Cn1cc(C#N)c2ccccc21)C(=O)O` [Compound F-09] registered an IC50 of 100 to 500 nM. For the same molecule, in data set [2], the “hepatic or renal toxicity upon histopathological examination” value is given as “no hepatic or renal toxicity”.

As to `CC(C)(Sc1ccccc1Cn1cc(C#N)c2ccc(F)cc21)C(=O)O` [Compound F-16], the IC50 in data set [1] lay within 100 to 500 nM. For the same molecule, the “hepatic or renal toxicity upon histopathological examination” value in data set [2] was “no hepatic or renal toxicity”.

`N#Cc1cn(Cc2cc(Br)ccc2SC2(C(=O)O)CCC2)c2ncccc12` [Compound F-28]: the 50% inhibitory concentration (IC50) in data set [1] (setting [3]) fell in the range of 100 to 500 nM. Besides, in data set [2], the “hepatic or renal toxicity upon histopathological examination” value is given as “no hepatic or renal toxicity”.

`N#Cc1cn(Cc2cc(F)ccc2SC2(C(=O)O)CCC2)c2ncccc12` [Compound F-26] showed a concentration for half-maximal inhibition (IC50) in data set [1] of 100 to 500 nM. Also, the “hepatic or renal toxicity upon histopathological examination” value in data set [2] is given as “no hepatic or renal toxicity”.

In data set [1], `CC(C)(Sc1ccccc1Cn1cc(C#N)c2ccccc21)C(=O)O` [Compound F-02] returned an IC50 of 100 to 500 nM. Besides, the “hepatic or renal toxicity upon histopathological examination” value in data set [2] is recorded as “no hepatic or renal toxicity”.

Take `COc1ccc(SC(C)(C)C(=O)O)c(Cn2cc(C#N)c3ccccc32)c1` [Compound F-13]: the concentration for half-maximal inhibition (IC50) in data set [1] (setting [3]) is 100 to 500 nM. Moreover, in data set [2], the “hepatic or renal toxicity upon histopathological examination” value is on record as “no hepatic or renal toxicity”.

The molecule `Cc1ccc(SC(C)(C)C(=O)O)c(Cn2cc(C#N)c3ccccc32)c1` [Compound F-12] came in with an IC50 in data set [1] of 100 to 500 nM. Besides, in data set [2], the “hepatic or renal toxicity upon histopathological examination” value is “no hepatic or renal toxicity”.
